Key:
[1] = test system: macrophages (THP-1 cell line); assay: MJ-mediated iron acquisition: conversion of MJ to Fe-MJ in macrophage culture, HPLC analysis; assay type: cell-based, human; details: for effect on basal recovery of Fe-MJ: 10 μM metal transferrin added to macrophages with MJ; for stimulation of MJ-mediated iron acquisition from macrophages (conversion of MJ to Fe-MJ): 10 μM transferrin species added to macrophages with MJ, 37° C.
Description: Cell cultures. The THP-1 cell line (a macrophage-like monocyte) was purchased from American Type Culture Collection (ATCC) and used for all protocols. The cells were cultured into PRMI1640 (ATCC) supplemented with 10% fetal bovine serum (ATCC), 2 mM L-glutamine and 0.02 mM penicillin-streptomycin, and maintained at a cell concentration between 2×10^5 and 1×10^6 cells/ml at 37° C. in a 5% CO2 air atmosphere by addition of fresh growth medium (as described above) twice per week. Either PRMI1640 or phenol-red-free PRMI1640 was used with the supply of 2 mM L-glutamine and 0.02 mM penicillin-streptomycin, but in the absence of 10% FBS, for the experiments with MJ.
HPLC analysis for Fe-MJ and MJ. Varian ProStar & PrepStar HPLC and a Waters Delta Pak 5μ C18-300 Åcolumn were used with 3:7 H2O:CH3CN as eluting solution under all conditions. The intensities of the peak with retention time 43 min at 460 nm were integrated and normalized to the amount of Fe-MJ. Macrophages (final concentration, 1×10^5 cells/ml) or 0.05 mM DMPC vesicles as controls were preincubated in RPMI 1640 medium at 37° C. for 4 h, followed by the addition of MJ (final concentration, 1.5 μM). The media were incubated for 24 h at various conditions, such as in the presence or absence of hTf, at varied temperatures or in the presence of different concentrations of desferrioxamine mesylate salt. Three aliquots (3×4 ml) of the medium were collected and lysed by dunces. Lipophilic components were extracted into 3.5 ml CHCl3 and the mixture was centrifuged at 2500 r.p.m for 8 min. The organic layer extraction 2.5 ml was subject to a stream of argon to vaporize CHCl3. The dried mixture was dissolved into 400 μl CH3CN, of which 200 μl solutions was injected into HPLC. The peak intensity of 100% conversion to Fe-MJ was obtained by incubating 1.5 μM Fe-MJ into the medium, following the same workup above.

[2] = Lipid-aqueous-phase partition coefficient using lipid vesicles as model membrane; assay type: physicochemical
macrophage cells = assay: Cell-aqueous-phase distributions of MJ and Fe-MJ; assay type: in vitro ADME, human
Description: Cell-aqueous-phase distributions of MJ and Fe-MJ. After the conversion from MJ to Fe-MJ, aqueous-phase Fe-MJ was obtained by separating the supernatant medium from macrophage cells via the centrifugation with 1500 r.p.m for 5 min. The aliquot of recovered supernatant was subject to CHCl3 extract and HPLC analysis as described above. For measurements of the cell/aqueous-phase partition coefficient of Fe-MJ, Fe-MJ 1.0 μM was incubated into RPMI 1640 medium at 37° C. for half an hour in the presence of various concentrations of macrophage cells. Then the supernatant was separated and analyzed as described above. For the partition coefficient of MJ, prior to the HPLC analysis, a 10-fold ferric citrate excess was added into a MJ-CH3CN solution, followed by a two-hr incubation for the complete conversion from MJ to Fe-MJ. Aqueous-phase and total MJ and Fe-MJ, Ctotal and Cw, respectively, were used to calculate Cv/Cw according to the relationship: Cv/Cw=(Ctotal−Cw)/Cw. The partition coefficient, K was defined according to the following equation: Cv/Cw=K×[Cell], in which [Cell] is the concentration of macrophage cells (cells/ml) and Cv is the amount of lipid-phase MJ or Fe-MJ.

Substance	effect on basal recovery of Fe-MJ [1]	stimulation of MJ-mediated iron acquisition from macrophages (conversion of MJ to Fe-MJ) [1]	further results
Al(III) transferrin: Al(III) transferrin complex prepared from apo transferrin, Al(NO3)3 and nitrilotriacetic acid	greatly suppressed	failed to stimulate	–
Co-Tf: Cobalt(III) transferrin	–	more effective agonist than hTf	–
Ga(III) transferrin: Ga(III) transferrin complex prepared from apo transferrin	greatly suppressed	failed to stimulate	–
ferric mycobactin J [Fe-MJ]	–	–	lipid-aqueous-phase partition coefficient Kx [2]: 3×10^5; Fe-MJ from the aqueous phase as share of total recovered Fe-MJ (macrophage cells; after 24-hr incubation of MJ in macrophage culture (1×10^5 cells/ml), presence or absence of hTf): 80%; cell-aqueous-phase partition coefficient K (Cv/Cw=K×[Cell]) (macrophage cells; macrophage cells, RPMI 1640, 37° C.): 9.8×10^−7 ml/cell
hTf: fully saturated holo-transferrin (human transferrin), obtained from Sigma	–	nearly doubled	hTf-triggered conversion at low temperatures ([1]; 10 μM hTf, low temperatures (4° C. level similar to absence of hTf)): significantly suppressed

— patent publication US8389231B2, “Assays, method and compositions that exploit a mycobacterial iron acquistion pathway in cells” (The Trustees of Princeton University, priority 2005, dated 2013)
